Common to all, as to format: cell-based
One data set concerns MCF7 cells. Nature of the data set: Cell Titer-Glo 3D cell viability assay, 48 h, MCF7. As to the method: (§1) Cell Culture: Cell viability was assessed using the MCF7 and MCF10A cell lines. Cells were maintained in relevant media throughout the study, in an incubator set to 37°C and 5% CO2, with media changes every 2–3 days. […] Compound plate preparation: […] Plates were sealed and stored at −4°C prior to use. Viability Assay: […] Plates were incubated for 48 h in a humidified incubator set to 37°C and 5% CO2. […] Cat #G9682). Plates were centrifuged briefly and incubated protected from light for 30 min at 30°C. Luminescence signal was measured using a CLARIOstar Plus microplate reader (BMG Labtech). Data Analysis: Raw relative luminescence unit (RLU) data were de-randomised prior to background subtraction. Viability was determined as a percentage of vehicle control (DMSO only). % Viability = ((Sample RLU—Mean Positive Control) ÷ (Mean Negative Control—Mean Positive Control)) × 100.

The subject of another data set is MCF10A cells. The experiment in a line: Cell Titer-Glo 3D cell viability assay, 48 h, MCF10A. As to the method: as §1
Background: Cellular ATP, detected with luciferase, serves as a proxy for viable cell number.

Test in data set [1]: as above
The conditions noted are these: human, MCF10A cells, MCF10A, 48 h, % of vehicle control. As to the method:
as §1

[2] abbreviates: Homo sapiens, MCF7; read-out: MCF7 IC50 Reached.
The mark [3] stands for this setting: Homo sapiens, MCF-10A; read-out: MCF10 IC50 Reached.
[4] abbreviates: Homo sapiens, MCF-10A; MCF10A, 48 h viability; read-out: IC50.

The record followed here is publication PMC13242297, “Drug response profile-based machine learning enables strategic cell line and compound selection for drug development” (Bioinformatics, 2026).

Like-named read-outs stand apart in the source and are kept apart here. A value given as a limit tells only on which side of the number the result lay.

Broadly, the IC50 is the concentration at which inhibition is half-maximal. Take `Cc1cc([C@@H](C)Nc2ccccc2C(=O)O)c2nc(N3CCOCC3)cc(=O)n2c1` [AZD 6482]: the IC50 in the data set with MCF7 cells (setting [2]) and in the data set on MCF10A cells (setting [3]) was more than 2500 nM in each case. The “IC50 (in words)” value with MCF7 cells (MCF7, up to […]) is “did not reach IC50 values”; with MCF10A cells (MCF10A, up to […]), “did not reach IC50 values”.

Broadly, the viability is a read-out of living cells in per cent, often relative to untreated cells. With `CC[C@@H]1C(=O)N(C)c2cnc(Nc3ccc(C(=O)NC4CCN(C)CC4)cc3OC)nc2N1C1CCCC1` [BI 2536], the IC50 was less than 100 nM with MCF7 cells (Homo sapiens, MCF7, 48 h); less than 2500 nM in the data set with MCF7 cells (Homo sapiens, MCF7, read-out: MCF7 IC50 Reached); approximately 1000 nM in the data set with MCF10A cells (Homo sapiens, MCF-10A, 48 h); less than 2500 nM in the data set on MCF10A cells (Homo sapiens, MCF-10A, read-out: MCF10 IC50 Reached). Further, the viability at 48 h, […] in data set [1] (0.0025 uM) stood at 92.4%; in data set [1] (0.025 uM) it was 67.7%; in data set [1] (0.25 uM), 72.3%; in data set [1] (2.5 uM), 33.9%.

In the case of `Nc1ccn([C@@H]2O[C@H](CO)[C@@H](O)[C@@H]2O)c(=O)n1` [Cytarabine], the IC50 in the data set with MCF7 cells (setting [2]) and with MCF10A cells (setting [3]) was more than 2500 nM in each case.

In the case of `Nc1ccn([C@@H]2O[C@H](CO)[C@@H](O)C2(F)F)c(=O)n1` [Gemcitabine], the IC50 with MCF7 cells (setting [2]) is more than 2500 nM; with MCF10A cells (setting [4]), less than 250 nM; in the data set with MCF10A cells (setting [3]), less than 2500 nM.

`Nc1nc2[nH]cc(CCc3ccc(C(=O)N[C@@H](CCC(=O)O)C(=O)O)cc3)c2c(=O)[nH]1` [Pemetrexed]: the IC50 in the data set with MCF7 cells (setting [2]) and in the data set on MCF10A cells (setting [3]) was more than 2500 nM each time. For the same compound, the “IC50 (in words)” value is “did not reach IC50 values” with MCF7 cells (MCF7, up to […]) and “did not reach IC50 values” in the data set on MCF10A cells (MCF10A, up to […]).

Take `NS(=O)(=O)OC[C@@H]1C[C@@H](n2ccc3c(N[C@H]4CCc5ccccc54)ncnc32)C[C@@H]1O` [Pevonedistat]: the half-maximal inhibitory concentration (IC50) with MCF7 cells (setting [2]) is less than 2500 nM; with MCF7 cells (Homo sapiens; MCF7, 48 h viability; read-out: IC50), less than 100 nM; with MCF10A cells (setting [4]) it was more than 2500 nM; in the data set with MCF10A cells (setting [3]), more than 2500 nM.
